Measured values from EP0979827A1, “Peptides having tachykinin antagonist activity, a process for preparation thereof and pharmaceutical compositions comprising the same” (Boehringer Ingelheim Pharma KG, priority 1992, dated 1994).

Biological target: T1, NK1-Rezeptor (Substanz P-Rezeptor) (Homo sapiens, UniProt P25103)
T1 construct: expressed in transfected cells; host or cells: human lymphoblastoma cells IM-9
Assay: Receptor affinity for the NK1 receptor: displacement of 125I-labelled substance P on IM-9 cells
Format: binding
Details: humane Lymphoblastoma-Zellen (IM-9) mit klonierten NK1-Rezeptoren; Verdrängung von 125J-markierter Substanz P; read-out: IC50-Werte
Description: Die Rezeptoraffinität zum NK1-Rezeptor (Substanz P-Rezeptor) wurde an humanen Lymphoblastoma-Zellen (IM-9) mit klonierten NK1-Rezeptoren bestimmt, wobei die Verdrängung von ^125J-markierter Substanz P gemessen wird. Die so erhaltenen IC50-Werte betragen: Verb. A : 60 nM Verb. B : 21 nM Verb. C : 90 nM Verb. D : 45 nM [drawing 26]

T1 sequence (P25103 whole entry): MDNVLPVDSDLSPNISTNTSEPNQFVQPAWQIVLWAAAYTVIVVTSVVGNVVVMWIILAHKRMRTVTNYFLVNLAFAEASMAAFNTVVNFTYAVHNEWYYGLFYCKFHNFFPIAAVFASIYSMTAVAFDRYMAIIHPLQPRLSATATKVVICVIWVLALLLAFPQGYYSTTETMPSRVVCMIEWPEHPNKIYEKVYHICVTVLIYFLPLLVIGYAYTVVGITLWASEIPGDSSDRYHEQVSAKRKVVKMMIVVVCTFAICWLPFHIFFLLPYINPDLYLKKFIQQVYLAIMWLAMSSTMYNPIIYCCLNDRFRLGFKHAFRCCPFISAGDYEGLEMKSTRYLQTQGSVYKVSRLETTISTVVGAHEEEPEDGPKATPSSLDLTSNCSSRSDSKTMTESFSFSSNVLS

Structure (SMILES): CN(Cc1ccccc1)C(=O)[C@H](COCc1ccccc1)NC(=O)[C@@H]1C[C@@H](O)CN1C(=O)c1c[nH]c2ccccc12 [Verb. B]
- IC50: 21 nM

Structure (SMILES): CN(Cc1ccccc1)C(=O)[C@H](Cn1cccc1)NC(=O)[C@@H]1C[C@@H](O)CN1C(=O)c1c[nH]c2ccccc12 [Verb. A]
- IC50: 60 nM

Structure (SMILES): CN(Cc1ccccc1)C(=O)[C@H](CC1CCCCC1)NC(=O)[C@@H]1C[C@@H](O)CN1C(=O)c1c[nH]c2ccccc12 [Verb. D]
- IC50: 45 nM
